In PubChem BioAssay (NCI):
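Interpolation was linear, between the two tested concentrations surrounding the appropriate level; five concentrations were tested over 48 hours in 96-well plates. At the GI50, growth is halved. The concentration for full growth arrest is given as TGI.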

How the values were obtained:
Experiment in all cases: DTP human tumour cell line panel, 48 h
NCI-H460 lung = system: NCI-H460 lung
A549 NSCLC = system: A549 NSCLC
RPMI-8226 leukemia = system: RPMI-8226 leukemia
SW-620 colon = system: SW-620 colon
HCT-116 colon = system: HCT-116 colon
NCI-H23 lung = system: NCI-H23 lung
HCT-15 colon = system: HCT-15 colon
SK-OV-3 ovarian = system: SK-OV-3 ovarian
U251 CNS = system: U251 CNS
NCI-H226 lung = system: NCI-H226 lung

Compound	TGI (NCI-H460 lung) [µM]	TGI (A549 NSCLC) [µM]	TGI (RPMI-8226 leukemia) [µM]	TGI (SW-620 colon) [µM]	TGI (HCT-116 colon) [µM]	TGI (NCI-H23 lung) [µM]	TGI (HCT-15 colon) [µM]	TGI (SK-OV-3 ovarian) [µM]	TGI (U251 CNS) [µM]	GI50 (NCI-H460 lung) [µM]	GI50 (A549 NSCLC) [µM]	GI50 (RPMI-8226 leukemia) [µM]	GI50 (SW-620 colon) [µM]	GI50 (HCT-116 colon) [µM]	GI50 (NCI-H23 lung) [µM]	GI50 (HCT-15 colon) [µM]	GI50 (SK-OV-3 ovarian) [µM]	GI50 (U251 CNS) [µM]	GI50 (NCI-H226 lung) [µM]	TGI (NCI-H226 lung) [µM]
C/C(=N\NS(=O)(=O)c1ccc(C)cc1)c1ccc[n+]([O-])n1	> 100	> 100	> 100	> 100	> 100	> 100	> 100	> 100	> 100											
O=C(/C=C/N1CCN(c2cccc(C(F)(F)F)c2)CC1)c1ccc(Cl)cc1Cl	97.3	> 100	70.8	> 100	50.2	75.3	53.9	98.2	59.8	30.9	39.8	25.9	38.8	23.6	23.2	26.8	36.2	26.1		
CCC1OCCN1C(C)C (stereo not drawn)	> 100	> 100	> 100	> 100	> 100	> 100	> 100	> 100	> 100											
Cc1nnc2n1N=C(CC(=O)c1ccc(O)cc1O)CN2N	> 100	> 100		31	> 100	> 100	29.7	> 100	> 100											
Cn1c(=O)c2c3oc(=O)cc(O)c3c(=O)n3c4ccccc4n(c1=O)c23	> 100	> 100	91.5	> 100	> 100	> 100	> 100	> 100	> 100											
CC[C@]12C=CCN3CC[C@]4(C(=C(C(=O)OC)C1)Nc1cc(O)ccc14)[C@@H]32	38.5	70.8	79.8	36.6	34.3	37.7	36.5		36.9	18.9	23.3	26.2	16.3	16.2	16.8	14.6		15.6		
COC(=O)/C(=N\NC(=O)c1ccccc1O)C(C#N)c1ccc(Cl)cc1 (stereo not drawn)	> 100	> 100		> 100	> 100	76	> 100		> 100											
CCOC(=O)/C=C1\Nc2ccccc2C(c2ccccc2)=NC1OC(C)=O (stereo not drawn)	> 100	> 100	> 100	> 100	> 100	> 100	> 100	> 100	> 100											
CCOC(=O)CCC1(C(=O)OC)CCCC1=O (stereo not drawn)	> 100	> 100	> 100	> 100	> 100	> 100		> 100	> 100											
CC(=O)[CH-]C(=O)c1ccccc1.CC(=O)[CH-]C(=O)c1ccccc1.[O]=[U+2]=[O]	> 100	> 100	> 100	> 100		> 100	> 100	> 100	> 100	36.9	31	40.7	35.3		46.9	35.1	68.5	35.5		
CCCCCCCCCCCCCCCC[N+]1(CC)CCCC1	1.62	2.59		1.65	1.4		5.49	3.05	1.35	0.437	1.07		0.41	0.361		1.35	1.02	0.363	1.18	5.95
O=C1c2ccccc2-c2cc3ccccc3c(=O)n21	> 100	> 100	> 100	> 100	> 100	> 100	> 100													
c1ccc(SCCCC(Sc2ccccc2)Sc2ccccc2)cc1	> 100	> 100	> 100	> 100	> 100	> 100	> 100	> 100	> 100											
c1ccc2c(c1)CCCc1cc3ccccc3nc1-2	> 100	> 100	99.2	> 100	> 100	> 100	> 100	> 100	> 100											
O=c1oc(-c2ccc(O)c(O)c2)cc2cc(O)cc(O)c12	> 100	> 100	> 100	> 100	> 100	> 100	> 100	> 100	> 100	31	34.1	20.8	35.2	29.8	35.2	57.1	> 100	48.5		
O=C(Oc1c(I)ccccc1=O)c1ccc([N+](=O)[O-])cc1	23.5	63.2	88	83.6	> 100	99.6	31.7		57.9											
Cc1nnc([S-])s1.[Au+].c1ccc([PH+](c2ccccc2)c2ccccc2)cc1			5.31									1.8								
